For one assay, the system named is mushroom tyrosinase. Put plainly: Melanin synthase (tyrosinase) inhibition with L-DOPA, absorbance 475 nm. The conditions noted are these: method of Example 4. Format: biochemical. The procedure: Meanwhile, in order to measure a skin whitening effect of the white rose petal extract, an effect of inhibiting activity of tyrosinase as melanin synthase was measured with reference to the guideline of “beauty-related functional tests (pp. 821-858)” of Korea health official compendium research society foundation. […] In this case, on the basis of a change in absorbance when only the buffer without the white rose fractions was added as a reference (100%), reduction of the absorbance caused by the white rose fractions for each concentration was represented by an inhibition rate.

The subject of the next assay is B16 mouse melanoma cells. The assay is described as follows: Melanin synthesis inhibition in α-MSH-treated cells. To be noted: method of Example 5. Format: cell-based. As for the experimental part:
In order to more definitize a skin whitening effect of the white rose petal extract, the inventors measured a melanin synthesis inhibitory effect of the white rose petal extract at a cell level with reference to the guideline of “beauty-related functional tests (pp. 821-858)” of Korea health official compendium research society foundation (2004).
When simply describing this, B16 mouse melanoma cells were dispensed to 1×10^4 cells/well (0.5 mL) in a […] plate and cultured for 24 hours. The B16 mouse melanoma cells was treated with the white rose fraction for each concentration and a α-melanocyte stimulating hormone (MSH) and additionally cultured for 3 days at 37° C. The cells were lysed by adding 0.15 mL of 1 M NaOH to a culture medium and boiled for 5 minutes to elute the melanin. 0.1 mL of the eluate was taken and absorbance at 490 nm was measured. A standard calibration curve was created by synthetic melanin and the concentration was quantified and an inhibition rate for each concentration of the white rose fraction was proposed based on a melanin production amount when the sample was not treated as a reference (100%).

Assay [1] deals with collagen matrix metalloproteinase-1 (MMP-1). The assay is described as follows: Collagen matrix metalloproteinase-1 (MMP-1) activity inhibition, collagenase type-1 on bovine tendon collagen, ninhydrin absorbance 600 nm. It counts as biochemical. To be noted: method of Example 3. As for the experimental part:
As part of measuring a wrinkle alleviation effect of the white rose petal extract, effects of inhibiting activity of collagen matrix metalloproteinase-1 (MMP-1) of the extracts were measured with reference to the guideline of “beauty-related functional tests (pp. 821-858)” of Korea health official compendium research society foundation.
When simply describing the effect, 25 mg of bovine tendon collagen was dissolved in a 0.05 M tris(hydroxymethyl)-methyl-2-aminoethane sulfonate (TES) buffer and then left for 15 minutes at 37° C. Next, a test material for each concentration was added and then additionally reacted with collagenase type-1 for 5 hours at 37° C. 0.2 mL of a reaction solution was taken and added to 1 mL of a buffer [4% ninhydrin in methyl cellosolve (2-methoxyethanol)+0.2 M sodium citrate with 0.71 mM stannous chloride]. The reaction solution was boiled for 20 minutes, added with n-propanol, and then left for 15 minutes and then absorbance was measured at 600 nm. On the basis of a change in absorbance when only the buffer without the white rose fractions was added as a reference (100%), reduction of the absorbance caused by the white rose fractions for each concentration was represented by an inhibition rate.

Take `COc1c(CC=C(C)C)c(O)c2c(=O)c3c(O)ccc(OC)c3oc2c1CC=C(C)C` [3,5-di-o-methyl-gartanin]: the “tyrosinase inhibition activity (in words)” value in the assay with mushroom tyrosinase was “excellent tyrosinase inhibition activity”. Moreover, the “melanin synthesis inhibitory effect (in words)” value in the assay on B16 mouse melanoma cells is “efficiently inhibited”. Moreover, the “inhibition effect of MMP-1 (in words)” value in assay [1] is listed as “particularly excellent inhibition effect of MMP-1”.

The values above are taken from US10842727B2, “Cosmetic composition comprising white rose flower extract for skin whitening and improving skin wrinkle” (CHUNGBUK NATIONAL UNIVERSITY INDUSTRY-ACADEMIC COOPERATION …, priority 2014, dated 2020).
